“Also recorded” adds a separate entry of the source.

One assay deals with T1, S1PR1 (Homo sapiens, UniProt P21453).
T1 construct: expressed in transfected cells; host or cells: CHO cells, adenoviral transduction
Put plainly: S1P-stimulated ERK1/2 activation in CHO cells transduced with S1PR1 (Western blot p-ERK). Format: cell-based. The conditions noted are these: TY-52156 10 μM, 10 min, then S1P 200 nM. The procedure:
(§1) FIGS. 7A-7E. Inhibition of S1PR3 diminishes lung carcinoma growth. (7A), C57BL/6 mice were subcutaneously inoculated with LLC cells (1×10^6 cells). 1 week later, mice were intraperitoneally administered with VPC23019 (1.5 mg/kg of body weight) or control vehicle every 3 days. (7B), S1PR1 and S1PR3 levels in Lewis lung carcinoma cells. -ve, PCR reactions were performed without cDNA. **, p<0.01, n=6, ANOVA. (7C), CHO cells were transduced with adenoviral particles carrying S1PR1, S1PR2, S1PR3, or pcDNA control vector. Cells were serum-starved for 24 h. […] ERK1/2 activation (p-ERK) was measured by Western blotting analysis. (7D), C57BL/6 mice were subcutaneously inoculated with LLC cells (1×10^6 cells). […] (7E), tumor weights were measured 24 days after implantation. **, p<0.01, n=6, ANOVA.
(§2) Western Blotting Analysis. Protein extraction and Western blotting were performed as described (11). Briefly, cells were collected in ice-cold PBS using cell scrapers followed by centrifugation (500×g, 5 min). […] After centrifugation at 15,000×g for 20 min, supernatant was collected and protein concentration was measured using a bicinchoninic acid protein assay kit with BSA as standard. […]

The target of the next assay is T2, S1PR2 (Homo sapiens, UniProt O95136).
T2 construct: expressed in transfected cells; host or cells: CHO cells, adenoviral transduction
Put plainly: S1P-stimulated ERK1/2 activation in CHO cells transduced with S1PR2 (Western blot p-ERK). The class given is cell-based. The conditions noted are these: TY-52156 10 μM, 10 min, then S1P 200 nM. As to the method:
as §1, §2

In assay [1] the test system is Lewis lung carcinoma cells. Put plainly: Subcutaneous Lewis lung carcinoma tumor growth in C57BL/6 mice. The class given is in vivo, mouse. The conditions noted are these: s.c. LLC cells. As to the method:
as §1
Tumor Growth and Lung Colonization in Mice. All animal procedures were performed according to the National Institutes of Health and institutional guidelines, and were approved by the Wayne State University Animal Use and Care Committee. For subcutaneous implantation, lung carcinoma cells were adjusted to 1×10^7 cells/ml. Mice were injected with 0.1 ml of cell suspension into the subcutaneous dorsa in the proximal midline. […] Tumor volume was measured in two dimensions using calipers, and volume was determined using the formula width 2×length×0.52 (49). […]

Assay [2] has as its system human lung adenocarcinoma cells exhibiting K-Ras G12D mutation. Put plainly: Proliferation and colony formation of cultured lung adenocarcinoma cells. Format: cell-based.
Another assay concerns lung adenocarcinoma. Put plainly: Lung adenocarcinoma in LSL-KRas G12D mouse model (Ad-Cre). The class given is in vivo. The note with it: Ad-Cre injected mice; 10 mg/kg i.p. every two days; lungs analyzed 2 months later. As to the method:
FIGS. 8A-AD. […] Mice were injected with or without Ad-Cre. Lungs were analyzed for adenocarcinoma 2 months later. (8A) LSL-KRas^G12D injected with Ad-Cre. (8B) LSL-KRas^G12D injected with Ad-Cre. […] (8C) LSL-KRas^G12D mice injected with Ad-Ctrl. (8D) wild-type C57BL/6 mice injected with Ad-Cre. Arrows, lung adenocarcinomas. Scale bar=[…].

In assay [3] the test system is S1PR3 expression. Put plainly: S1PR3 up-regulation in K-Ras G12V-expressing HEK293 cells (qPCR). Format: cell-based. The conditions noted are these: HEK293 pBabe-K-Ras G12V, anti-TGF-β 10 μg/ml, SB-431542 10 μM, SIS3 2 μM, 37° C., 24 h. As to the method: FIGS. 3A-3F. TGF-β/SMAD3 signaling contributes to oncogenic K-Ras mutant-stimulated S1PR3 up-regulation. (3A), P, potential SMAD3 binding sites in S1PR3 promoter. 0, transcription initiation site. (3B-3D), HEK293 cells were stably transfected with pBabe-K-Ras^G12V or pBabe control vector. Levels of total cellular K-Ras (3B), S1PRs (3C), and TGF-β (3D) were measured by qPCR analysis. (3E), HEK293 cells transfected with pBabe-K-Ras^G12V or pBabe control vector were incubated with anti-TGF-β (Cell Signaling, antibody number 3711, 10 μg/ml) or irrelevant normal rabbit IgG (10 μg/ml) at 37° C. for 24 h. Levels of S1PR3 were quantitated by qPCR. (3F), HEK293 cells transfected with pBabe-K-Ras^G12V or pBabe control vector were treated with or without SB-431542 (SB4) (inhibitor of TGF-β receptor 1, 10 μM) or SIS3 (inhibitor of SMAD3, 2 μM) at 37° C. for 24 h. Levels of S1PR3 were quantitated by qPCR. **, p<0.01, n=3, Student's t test.
(§3) Real-time PCR Analysis. Total RNA was isolated using TRIzol reagent (Invitrogen) and was reverse-transcribed with an oligo(dT) primer (Promega) by Moloney Murine Leukemia Virus (M-MLV) Reverse Transcriptase (Promega) for first-strand cDNA synthesis. For real-time PCR quantitation, 50 ng of reversely transcribed cDNAs were amplified with the ABI 7500 system (Applied Biosystems) in the presence of TaqMan DNA polymerase. […]

For assay [4], the system named is S1PR3 expression. Put plainly: TGF-β-stimulated S1PR3 up-regulation in HBEC2-KT cells (qPCR). Format: cell-based, human. The note with it: 30 min pretreatment, SB-431542 10 μM, SIS3 2 μM, SB-203580 50 nM, BAY11-7085 10 μM, JNK inhibitor II 10 μM, TGF-β 4 h. The procedure: FIGS. 4A-4H. TGF-β/SMAD3 signaling axis up-regulates S1PR3. (4A), HBEC2-KT cells were treated with TGF-β (1 ng/ml) for various times. mRNA levels of S1P receptors were measured by qPCR analysis. Data are mean±S.D. of triplicate determinations. *, p<0.05, Student's t test. (4B), protein levels of S1PR3 in TGF-β (1 ng/ml)-treated HBEC2-KT cells. Lower panel, Western blot intensity was quantitated by National Institutes of Health ImageJ. Data (normalized to actin) are mean±S.D. of triplicate determinations. * and **, p<0.05 and 0.01, respectively, Student's t test. (4C), CHO cells were transduced with adenoviral particles (multiplicity of infection of 200) carrying S1PR1, S1PR2, or S1PR3 vector for 20 h as previously described (8). Extracts were blotted with antibody against S1PR3 (Cayman), S1PR2 (Cayman), or S1PR1 (E49) (8). […] Medium was quantitated for S1P, ceramide (Cer), and sphingomyelin (SPM) by LC-MS/MS (29, 46). […] S1PR3 levels were measured by qPCR, following TGF-β treatment (4 h). […] Activation of p38, JNK, and NFκB was measured by Western blotting with phospho-p38 (P-p38), phospho-JNK (P-p54^JNK and P-p46^JNK), and phospho-IκBα (p-IκBα). […]
Real-time PCR Analysis. […] For real-time PCR quantitation, 50 ng of reversely transcribed cDNAs were amplified with the ABI 7500 system (Applied Biosystems) in the presence of TaqMan DNA polymerase. […]

A further assay has as its system IL-6 expression. Put plainly: TGF-β-induced IL-6 expression in H1793 lung adenocarcinoma cells (qPCR). The class given is cell-based, human. The conditions noted are these: CAY10444 10 μM. The procedure: FIGS. 14A-14E. S1P3 regulates the TGF-β-stimulated IL-6 expression. (14A) H1793 lung adenocarcinoma cells were pre-treated for 30 min with inhibitor of TGF-β receptor I (SB4, SB431542, 10 uM) or Smad3 (SIS3, 2 uM), followed by stimulating with TGF-β (1 ng/ml) for 4 hrs. Levels of IL-6 were analyzed by qPCR. […] The S1P-induced IL-6 expression is diminished when S1PR3 were knocked-down. (14E) HBEC2-KT normal lung epithelial cells were transduced with adenoviral particles carrying S1PR3 (Ad-S1PR3) or β-galactosidase (Ad-Ctrl, 200 m.o.i.) for overnight, followed by stimulating with or without S1P (200 nM, 4 hrs). mRNA levels of IL-6 were measured by qPCR analysis. Data are mean±SD from a representative experiment (n=3). Each experiment was repeated at least one time with similar results. Data are mean+S.D. (n=3). *, p<0.05; NS, non-statistic significance; t-test.
as §3

T1 sequence (P21453 whole entry, species assumed): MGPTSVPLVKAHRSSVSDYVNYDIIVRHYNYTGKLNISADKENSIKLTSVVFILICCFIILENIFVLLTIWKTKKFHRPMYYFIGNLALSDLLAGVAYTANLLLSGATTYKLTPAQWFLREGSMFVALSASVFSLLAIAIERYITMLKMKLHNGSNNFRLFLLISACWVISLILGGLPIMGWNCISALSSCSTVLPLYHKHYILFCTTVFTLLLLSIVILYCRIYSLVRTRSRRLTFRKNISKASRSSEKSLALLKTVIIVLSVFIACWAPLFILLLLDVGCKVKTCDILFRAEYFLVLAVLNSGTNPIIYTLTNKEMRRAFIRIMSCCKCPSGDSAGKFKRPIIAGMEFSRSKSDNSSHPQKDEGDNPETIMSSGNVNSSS
T2 sequence (O95136 whole entry, species assumed): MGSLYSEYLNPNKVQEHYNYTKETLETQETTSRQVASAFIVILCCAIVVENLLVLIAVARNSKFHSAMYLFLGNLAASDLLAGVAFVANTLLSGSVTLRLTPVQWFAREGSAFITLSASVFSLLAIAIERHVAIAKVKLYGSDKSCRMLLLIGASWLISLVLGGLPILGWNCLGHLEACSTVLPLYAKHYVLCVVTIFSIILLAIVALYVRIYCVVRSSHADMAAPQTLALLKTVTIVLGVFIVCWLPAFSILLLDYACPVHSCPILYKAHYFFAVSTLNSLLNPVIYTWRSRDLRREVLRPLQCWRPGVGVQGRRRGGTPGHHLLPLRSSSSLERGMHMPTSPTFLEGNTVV

As to `CC(C)(C)C(=O)/C(=N/c1ccc(Cl)cc1)NNc1ccc(Cl)cc1` [TY-52156, 1-(4-chlorophenylhydrazono)-1-(4-chlorophenylamino)-3,3-dimethyl-2-butanone], at S1PR1, the “S1P/S1PR1-stimulated ERK1/2 activation” value was “had no effect”. Besides, on S1PR2, the “S1P/S1PR2-stimulated ERK1/2 activation” value was “had no effect”. For the same compound, the “growth of Lewis lung carcinoma (tumor volume, tumor weight 24 days after implantation)” value in assay [1] (10 mg/kg intraperitoneally every 2 days from 1 week after inoculation, 10 mg/kg) was “significantly suppressed; also recorded: significantly diminished”. Besides, in assay [2], the “proliferation and colony formation” value was “effective in inhibiting”. Further, in the assay with lung adenocarcinoma, the “lung adenocarcinoma in LSL-KRas G12D mouse model” value is “significantly inhibits”.

For `CCCCCCCCc1cccc(NC(=O)[C@H](N)COP(=O)(O)O)c1` [VPC23019], in assay [1] (1.5 mg/kg intraperitoneally every 3 days from 1 week after inoculation, 1.5 mg/kg), the tumor growth result is recorded as “significantly inhibited; also recorded: significantly diminished”.

On to `COc1cc2c(cc1OC)CN(C(=O)/C=C/c1c(-c3ccccc3)n(C)c3ncccc13)CC2` [SIS3], for which, in the assay on S1PR3 expression [3], the “S1PR3 up-regulation in K-Ras G12V-expressing cells” value is given as “abrogated”. In addition, in the assay with S1PR3 expression [4], the “TGF-β-stimulated S1PR3 up-regulation” value is listed as “abrogated”.

Turning to `NC(=O)c1ccc(-c2nc(-c3ccc4c(c3)OCO4)c(-c3ccccn3)[nH]2)cc1` [SB-431542], the “S1PR3 up-regulation in K-Ras G12V-expressing cells” value with S1PR3 expression [3] is reported as “abrogated”. For the same compound, the “TGF-β-stimulated S1PR3 up-regulation” value in the assay on S1PR3 expression [4] is listed as “abrogated”.

On to `CCCCCCCCCCCC1N[C@H](C(=O)O)CS1` (some centres unmarked) [CAY10444], for which the “TGF-β-induced IL-6 expression” value in the assay with IL-6 expression was “significantly diminished”.

These data come from patent US20190117596A1 (WAYNE STATE UNIVERSITY, priority 2016, published 2019).
